Consider 19 molecules from ChEMBL document CHEMBL4715859, “Small Molecules Selectively Targeting Sigma-1 Receptor for the Treatment of Neurological Diseases” (J Med Chem, 2020).

Broadly, the Ki is the equilibrium dissociation constant of an inhibitor or competing ligand from its target. One may read the inhibition as how much of the control response was suppressed. Read a high inhibition as a response far below the control. Broadly, the IC50 is the concentration that inhibits the measured activity by half. High values mean weaker potency, low ones greater potency.

Test [1] concerns the target T1, Sigma non-opioid intracellular receptor 1 (Cavia porcellus, UniProt Q60492). As to the kind of experiment: Displacement of [3H]-(+)-pentazocine from sigma1 receptor in guinea pig brain cortex membranes incubated for 120 mins by solid scintillation counting method. In kind it is cell membranes, Membrane. (Loss of bound radioactivity is the signal in a displacement assay; it reports binding, not function.)

Test [2] deals with T2, Sigma intracellular receptor 2 (Rattus norvegicus, UniProt Q5U3Y7).
T2 sequence (Q5U3Y7 whole entry): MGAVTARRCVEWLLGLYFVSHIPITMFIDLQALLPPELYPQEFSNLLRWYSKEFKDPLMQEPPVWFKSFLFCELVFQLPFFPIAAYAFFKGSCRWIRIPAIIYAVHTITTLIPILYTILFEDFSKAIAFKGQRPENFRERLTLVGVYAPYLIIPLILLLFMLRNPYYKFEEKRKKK
The test can be described thus: Displacement of [3H]DTG from sigma2 receptor in rat liver membranes incubated for 120 mins by solid scintillation counting method. In kind it is cell membranes, Membrane.

The nature of test [3]: Selectivity ratio of Ki for displacement of [3H]DTG from sigma2 receptor in rat liver membranes to Ki for displacement of [3H]-(+)-pentazocine from sigma1 receptor in guinea pig brain cortex membranes. In kind it is cell membranes.
For test [4], the target named is D(4) dopamine receptor (Homo sapiens) (UniProt P21917). As to the kind of experiment: Inhibition of radioligand binding to dopamine D4 receptor (unknown origin) at 1 uM relative to control.
Test [5] has as its target Histamine H2 receptor (Homo sapiens) (UniProt P25021). The test can be described thus: Inhibition of radioligand binding to histamine H2 receptor (unknown origin) at 1 uM relative to control.
Test [6] addresses T3, Sodium-dependent noradrenaline transporter (Homo sapiens, UniProt P23975). As to the kind of experiment: Inhibition of radioligand binding to noradrenaline transporter (unknown origin) at 1 uM relative to control.
For test [7], the target named is T4, Sodium-dependent dopamine transporter (Homo sapiens, UniProt Q01959). As to the kind of experiment: Inhibition of radioligand binding to dopamine transporter (unknown origin) at 1 uM relative to control.
Test [8] deals with Kappa-type opioid receptor (Homo sapiens, UniProt P41145). The test can be described thus: Binding affinity to kappa opioid receptor (unknown origin).
Test [9] concerns the target T2, Sigma intracellular receptor 2. Format: cell membranes, Sprague-Dawley, Brain, Membrane.
Test [10] deals with T5, Sigma non-opioid intracellular receptor 1 (Rattus norvegicus, UniProt Q9R0C9). In kind it is cell membranes, Sprague-Dawley, Brain, Membrane.
The target of test [11] is T1, Sigma non-opioid intracellular receptor 1. As to the kind of experiment: Displacement of [3H]-(+)-pentazocine from sigma 1 receptor in guinea pig brain cortex membranes incubated for 120 mins by solid scintillation counting method. Format: cell membranes, Membrane.
A short description of test [12]: Displacement of [3H]DTG from sigma2 receptor in guinea pig brain membranes by scintillation counting method. Format: cell membranes, Cavia porcellus, Membrane.
The target in test [13] is T1, Sigma non-opioid intracellular receptor 1. The test can be described thus: Displacement of [3H]-(+)-pentazocine from sigma 1 receptor in Dunkin guinea pig brain membranes incubated for 120 mins by scintillation counting method. In kind it is cell membranes, Membrane.
The target of test [14] is T2, Sigma intracellular receptor 2. The test can be described thus: Displacement of [3H]DTG from sigma2 receptor in Wistar Hannover rat liver membranes incubated for 120 mins by solid scintillation counting method. Format: cell membranes, Membrane.
Test [15] is described as follows: Selectivity ratio of Ki for sigma2 receptor in Wistar Hannover rat liver membranes to Ki for sigma 1 receptor in Dunkin guinea pig brain membranes. In kind it is cell membranes.
For test [16], the target named is Sigma non-opioid intracellular receptor 1 (Mus musculus, UniProt O55242). As to the kind of experiment: Inhibition of radioligand binding to sigma1 receptor in C57BL/6 mouse brain membranes. In kind it is cell membranes, Membrane.
Test [17] concerns the target Sigma intracellular receptor 2 (Mus musculus, UniProt Q8VD00). As to the kind of experiment: Inhibition of radioligand binding to sigma2 receptor in C57BL/6 mouse brain membranes. In kind it is cell membranes, Membrane.
Test [18] has as its target T1, Sigma non-opioid intracellular receptor 1. As to the kind of experiment: Displacement of [3H]-(+)-pentazocine from sigma 1 receptor in Dunkin-Hartley guinea pig brain membranes incubated for 180 mins by liquid scintillation counting method. In kind it is cell membranes, Membrane.
A short description of test [19]: Displacement of [3H]-dio-tolylguanidine from Sigma 2 receptor in Dunkin-Hartley guinea pig brain membrane incubated for 120 mins in presence of sigma1 blocker (+)-SKF-10047 by liquid scintillation counting method. Format: cell membranes, Cavia porcellus.
The next test is filed under the species Cavia porcellus. As to the kind of experiment: Selectivity ratio of Ki for sigma 2 receptor in Dunkin-Hartley guinea pig brain membranes to Ki for sigma 1 receptor in Dunkin-Hartley guinea pig brain membrane.
For the next test, the target named is Histamine H3 receptor (Rattus norvegicus, UniProt Q9QYN8). As to the kind of experiment: Displacement of [3H]-methylhistamine from Histamine H3 receptor in rat cerebral cortex incubated for 30 min by liquid scintillation counting method. Format: tissue-based.
Test [20] concerns the target T6, Sigma non-opioid intracellular receptor 1 (Homo sapiens, UniProt Q99720).
The target in test [21] is T6, Sigma non-opioid intracellular receptor 1. As to the kind of experiment: Binding affinity to sigma-1 receptor (unknown origin).
In test [22] the target is Muscarinic acetylcholine receptor M1 (Homo sapiens, UniProt P11229). The test can be described thus: Binding affinity to muscarinic acetylcholine receptor M1 (unknown origin).
Test [23] has as its target Muscarinic acetylcholine receptor M2 (Homo sapiens, UniProt P08172). As to the kind of experiment: Binding affinity to muscarinic acetylcholine receptor M2 (unknown origin).
For test [24], the target named is Muscarinic acetylcholine receptor M3 (Homo sapiens, UniProt P20309). The test can be described thus: Binding affinity to muscarinic acetylcholine receptor M3 (unknown origin).
Test [25] concerns the target Muscarinic acetylcholine receptor M4 (Homo sapiens, UniProt P08173). The test can be described thus: Binding affinity to muscarinic acetylcholine receptor M4 (unknown origin).
Test [26] deals with Sigma intracellular receptor 2 (Homo sapiens, UniProt Q5BJF2). The test can be described thus: Binding affinity to sigma-2 receptor (unknown origin).
Test [27] deals with Alpha-2A adrenergic receptor (Homo sapiens, UniProt P08913). The test can be described thus: Binding affinity to alpha 2A adrenoceptor (unknown origin).
The target of test [28] is T5, Sigma non-opioid intracellular receptor 1. As to the kind of experiment: Displacement of [3H]-(+)-pentazocine from sigma 1 receptor in rat liver membranes incubated for 60 mins […] by radioactivity method. In kind it is cell membranes, Membrane.
The target in test [29] is T2, Sigma intracellular receptor 2. The test can be described thus: Displacement of [3H]DTG from sigma 2 receptor in rat liver membranes incubated for 60 mins in presence of [3H]-(+)-pentazocine by radioactivity method. In kind it is cell membranes, Membrane.
A short description of test [30]: Selectivity ratio of Ki for displacement of [3H]DTG from sigma2 receptor in rat PC12 cells to Ki for displacement of [3H]-(+)-pentazocine from sigma1 receptor in guinea pig brain homogenate. In kind it is cell-based.
Test [31] addresses T4, Sodium-dependent dopamine transporter. The test can be described thus: Displacement of [3H]WIN35428 from dopamine transporter (unknown origin) by liquid scintillation counting method.
Test [32] addresses T3, Sodium-dependent noradrenaline transporter. The test can be described thus: Displacement of [3H]nisoxetine from norepinephrine transporter (unknown origin) by liquid scintillation counting method.
The target of test [33] is Sodium-dependent serotonin transporter (Homo sapiens, UniProt P31645). As to the kind of experiment: Displacement of [3H]citalopram from serotonin transporter (unknown origin) by liquid scintillation counting method.

T6 sequence (Q99720 whole entry): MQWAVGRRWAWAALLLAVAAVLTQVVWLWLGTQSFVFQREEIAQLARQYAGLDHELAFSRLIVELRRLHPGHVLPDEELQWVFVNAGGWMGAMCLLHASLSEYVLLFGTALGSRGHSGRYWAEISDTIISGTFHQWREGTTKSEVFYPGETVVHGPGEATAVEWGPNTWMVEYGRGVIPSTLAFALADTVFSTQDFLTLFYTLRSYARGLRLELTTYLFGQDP
T1 sequence (Q60492 whole entry): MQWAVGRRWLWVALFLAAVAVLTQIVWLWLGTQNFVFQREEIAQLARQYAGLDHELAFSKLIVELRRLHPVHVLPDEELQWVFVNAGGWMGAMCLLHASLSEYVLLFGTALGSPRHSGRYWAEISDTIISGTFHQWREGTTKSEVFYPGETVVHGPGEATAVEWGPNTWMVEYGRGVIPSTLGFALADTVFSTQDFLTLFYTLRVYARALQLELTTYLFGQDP
T5 sequence (Q9R0C9 whole entry): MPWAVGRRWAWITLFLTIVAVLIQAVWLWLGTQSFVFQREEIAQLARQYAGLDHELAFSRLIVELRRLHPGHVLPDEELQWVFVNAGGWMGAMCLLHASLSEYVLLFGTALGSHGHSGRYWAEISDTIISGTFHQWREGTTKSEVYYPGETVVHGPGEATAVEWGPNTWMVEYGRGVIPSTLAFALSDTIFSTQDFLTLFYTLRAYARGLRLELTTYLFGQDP
Chain of Sigma intracellular receptor 2 (Homo sapiens, UniProt Q5BJF2) (Q5BJF2 whole entry): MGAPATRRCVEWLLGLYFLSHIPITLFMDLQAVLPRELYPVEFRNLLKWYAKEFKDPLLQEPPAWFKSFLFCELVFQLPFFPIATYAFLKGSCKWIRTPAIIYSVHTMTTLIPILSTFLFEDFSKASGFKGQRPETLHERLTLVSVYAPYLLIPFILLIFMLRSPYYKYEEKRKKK
T3 sequence (P23975 whole entry): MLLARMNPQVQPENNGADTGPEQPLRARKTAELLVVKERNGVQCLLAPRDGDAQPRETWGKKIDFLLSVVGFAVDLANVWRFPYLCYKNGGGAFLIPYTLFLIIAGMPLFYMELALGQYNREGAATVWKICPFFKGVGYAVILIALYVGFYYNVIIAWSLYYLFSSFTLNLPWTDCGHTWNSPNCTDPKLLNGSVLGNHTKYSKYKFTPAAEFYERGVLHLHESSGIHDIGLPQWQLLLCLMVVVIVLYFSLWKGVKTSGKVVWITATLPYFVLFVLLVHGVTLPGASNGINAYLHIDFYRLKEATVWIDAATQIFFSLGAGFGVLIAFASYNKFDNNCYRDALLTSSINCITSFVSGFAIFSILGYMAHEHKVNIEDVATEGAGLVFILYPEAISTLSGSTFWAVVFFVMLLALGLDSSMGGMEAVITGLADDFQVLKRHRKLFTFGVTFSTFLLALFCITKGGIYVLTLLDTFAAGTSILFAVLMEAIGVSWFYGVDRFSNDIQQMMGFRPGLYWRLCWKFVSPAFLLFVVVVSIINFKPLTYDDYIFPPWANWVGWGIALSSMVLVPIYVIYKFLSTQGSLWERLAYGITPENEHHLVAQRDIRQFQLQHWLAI
T4 sequence (Q01959 whole entry): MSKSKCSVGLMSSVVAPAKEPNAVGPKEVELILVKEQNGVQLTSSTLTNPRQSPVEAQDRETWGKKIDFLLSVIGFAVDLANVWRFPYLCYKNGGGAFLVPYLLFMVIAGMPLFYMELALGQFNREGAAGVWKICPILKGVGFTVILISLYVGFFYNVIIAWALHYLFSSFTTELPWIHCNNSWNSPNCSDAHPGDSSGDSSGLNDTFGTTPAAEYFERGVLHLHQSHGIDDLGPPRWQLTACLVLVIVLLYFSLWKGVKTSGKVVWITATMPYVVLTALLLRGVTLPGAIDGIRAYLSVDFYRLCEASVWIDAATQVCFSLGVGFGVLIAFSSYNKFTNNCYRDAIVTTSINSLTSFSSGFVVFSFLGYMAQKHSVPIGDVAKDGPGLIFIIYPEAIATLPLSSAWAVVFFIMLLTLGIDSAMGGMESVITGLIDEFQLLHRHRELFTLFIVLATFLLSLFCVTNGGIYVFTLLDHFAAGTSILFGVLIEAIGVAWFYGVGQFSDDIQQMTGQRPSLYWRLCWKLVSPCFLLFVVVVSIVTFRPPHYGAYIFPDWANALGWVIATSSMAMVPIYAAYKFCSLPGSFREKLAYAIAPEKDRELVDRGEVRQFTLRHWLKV
Chain of Sigma intracellular receptor 2 (Mus musculus, UniProt Q8VD00) (Q8VD00 whole entry): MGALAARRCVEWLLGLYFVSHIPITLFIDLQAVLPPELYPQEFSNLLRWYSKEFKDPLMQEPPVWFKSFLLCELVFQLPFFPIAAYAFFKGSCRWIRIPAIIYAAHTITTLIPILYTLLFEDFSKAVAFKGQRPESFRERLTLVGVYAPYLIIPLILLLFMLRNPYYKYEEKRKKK
Chain of Alpha-2A adrenergic receptor (P08913 whole entry): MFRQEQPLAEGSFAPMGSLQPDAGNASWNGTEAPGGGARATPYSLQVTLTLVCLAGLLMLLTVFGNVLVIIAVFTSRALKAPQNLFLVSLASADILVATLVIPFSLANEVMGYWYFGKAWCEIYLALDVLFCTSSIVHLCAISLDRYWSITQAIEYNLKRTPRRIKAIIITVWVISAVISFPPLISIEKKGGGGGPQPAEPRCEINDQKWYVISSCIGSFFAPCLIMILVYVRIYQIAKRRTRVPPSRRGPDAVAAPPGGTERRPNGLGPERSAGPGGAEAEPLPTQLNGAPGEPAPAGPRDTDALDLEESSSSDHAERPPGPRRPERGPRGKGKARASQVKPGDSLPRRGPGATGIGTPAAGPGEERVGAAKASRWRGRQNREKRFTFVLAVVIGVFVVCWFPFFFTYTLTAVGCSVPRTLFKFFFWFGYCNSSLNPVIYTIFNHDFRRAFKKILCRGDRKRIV
Chain of Muscarinic acetylcholine receptor M2 (P08172 whole entry): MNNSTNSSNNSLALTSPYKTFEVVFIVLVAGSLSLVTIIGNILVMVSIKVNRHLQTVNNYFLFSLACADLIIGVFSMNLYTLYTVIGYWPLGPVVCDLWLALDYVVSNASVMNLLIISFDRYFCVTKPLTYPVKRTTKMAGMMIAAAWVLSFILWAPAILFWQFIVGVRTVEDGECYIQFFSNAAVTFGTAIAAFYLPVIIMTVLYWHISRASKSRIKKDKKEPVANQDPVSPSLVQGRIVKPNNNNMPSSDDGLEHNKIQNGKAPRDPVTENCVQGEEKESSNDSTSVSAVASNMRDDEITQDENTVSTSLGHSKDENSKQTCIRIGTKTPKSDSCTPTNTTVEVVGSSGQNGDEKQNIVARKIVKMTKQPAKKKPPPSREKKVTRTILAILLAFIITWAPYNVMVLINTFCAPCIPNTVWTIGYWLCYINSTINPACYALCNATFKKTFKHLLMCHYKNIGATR
Chain of Muscarinic acetylcholine receptor M3 (P20309 whole entry): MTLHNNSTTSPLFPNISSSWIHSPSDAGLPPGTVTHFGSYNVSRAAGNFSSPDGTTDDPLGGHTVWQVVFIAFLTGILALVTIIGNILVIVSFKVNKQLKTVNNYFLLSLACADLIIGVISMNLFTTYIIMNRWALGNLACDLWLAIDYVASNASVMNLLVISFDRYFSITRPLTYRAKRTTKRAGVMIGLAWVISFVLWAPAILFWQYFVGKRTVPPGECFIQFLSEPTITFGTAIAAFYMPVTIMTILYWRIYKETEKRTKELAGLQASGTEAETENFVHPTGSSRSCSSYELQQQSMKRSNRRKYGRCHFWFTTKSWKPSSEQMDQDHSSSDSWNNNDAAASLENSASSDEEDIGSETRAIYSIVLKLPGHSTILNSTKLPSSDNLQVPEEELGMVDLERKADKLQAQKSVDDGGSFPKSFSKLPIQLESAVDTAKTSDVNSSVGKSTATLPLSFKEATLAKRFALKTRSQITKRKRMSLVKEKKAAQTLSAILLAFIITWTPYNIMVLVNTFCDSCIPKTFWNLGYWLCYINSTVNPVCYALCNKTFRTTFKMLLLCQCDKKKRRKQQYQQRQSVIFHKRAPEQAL
Chain of Histamine H3 receptor (Q9QYN8 whole entry): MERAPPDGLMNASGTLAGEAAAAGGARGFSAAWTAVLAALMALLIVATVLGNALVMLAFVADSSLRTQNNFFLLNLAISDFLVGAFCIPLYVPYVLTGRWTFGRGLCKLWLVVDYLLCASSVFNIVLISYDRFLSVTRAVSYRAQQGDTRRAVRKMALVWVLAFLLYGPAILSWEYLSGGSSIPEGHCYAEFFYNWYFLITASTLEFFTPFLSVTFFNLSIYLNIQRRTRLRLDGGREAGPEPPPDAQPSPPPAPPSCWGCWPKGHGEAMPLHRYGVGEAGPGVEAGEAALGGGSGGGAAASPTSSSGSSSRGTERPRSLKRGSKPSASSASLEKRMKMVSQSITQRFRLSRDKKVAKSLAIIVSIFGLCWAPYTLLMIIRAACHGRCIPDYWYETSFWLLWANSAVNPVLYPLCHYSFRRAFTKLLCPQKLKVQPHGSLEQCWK
Chain of Kappa-type opioid receptor (P41145 whole entry): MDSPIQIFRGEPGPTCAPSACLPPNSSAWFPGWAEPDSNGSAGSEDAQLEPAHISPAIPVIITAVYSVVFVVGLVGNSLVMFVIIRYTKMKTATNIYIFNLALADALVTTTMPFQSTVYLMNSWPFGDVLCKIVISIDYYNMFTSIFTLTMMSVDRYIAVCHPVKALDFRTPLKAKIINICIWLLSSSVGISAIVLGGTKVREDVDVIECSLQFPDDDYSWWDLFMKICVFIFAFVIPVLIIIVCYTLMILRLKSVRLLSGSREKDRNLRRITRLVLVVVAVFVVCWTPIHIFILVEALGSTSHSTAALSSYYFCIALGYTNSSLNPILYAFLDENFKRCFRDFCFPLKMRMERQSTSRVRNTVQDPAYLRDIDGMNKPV
Chain of Sigma non-opioid intracellular receptor 1 (Mus musculus, UniProt O55242) (O55242 whole entry): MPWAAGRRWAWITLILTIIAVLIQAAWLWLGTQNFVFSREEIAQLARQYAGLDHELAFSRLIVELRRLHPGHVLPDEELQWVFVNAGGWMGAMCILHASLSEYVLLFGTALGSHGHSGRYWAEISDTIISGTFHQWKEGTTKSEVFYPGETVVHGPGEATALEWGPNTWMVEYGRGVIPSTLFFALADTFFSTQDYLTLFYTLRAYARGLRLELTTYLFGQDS

For `Fc1ccc(CN2CCC(Cc3ccccc3)c3ccccc3C2)cc1` (configuration not stated), the results for the Ki in test [1] and in test [2] were 7.1 nM and 889 nM, respectively. Besides, in test [3], the Ratio Ki is above 52. Besides, the inhibition came out at 91% in [4], 59% in [5], 71% in [6] and 85% in [7].

On to `c1ccc(CC2CCN(CC3CCCCC3)Cc3ccccc32)cc1` (configuration not stated), for which the inhibitory constant (Ki) in [1] was 2.4 nM; in [2], 125 nM. In [3], the Ratio Ki was above 52.

`CC(C)=CCN1CCC2(C)c3cc(O)ccc3CC1C2C` (configuration not stated) [PENTAZOCINE] registered a Ki in [8] of 2.2 nM.

`CN(C)CCCN1c2ccccc2CCc2ccccc21` [IMIPRAMINE]: the Ki in test [9] came to 2110 nM; in test [10], 343 nM.

Turning to `O=C(COc1ccc(Cl)c(Cl)c1)NCCN1CCOCC1`, the results for the Ki in test [2] and in test [11] were 1500 nM and 42 nM, respectively.

With `COc1ccc(CCN2CCN(CCCc3ccccc3)CC2)cc1OC` [[11C]SA4503], in test [12], the half-inhibitory concentration (IC50) amounted to 1800 nM.

Consider `CCOC1(c2ncc(-c3cccnc3)s2)CCN(Cc2ccccc2)CC1`, for which the inhibition constant (Ki) in [1] was 1.3 nM; in test [2], 2130 nM. Besides, the Ratio Ki in test [3] is above 1500.

`c1ccc(CO[C@H](c2ccccc2)[C@H]2CCN(Cc3ccccc3)Cc3ccccc32)cc1`: the Ki worked out at 9 nM in [1] and 668 nM in [2]. Moreover, in [3], the Ratio Ki is above 52.

With `COc1ccc2c(CCCCN3C4CCCC3CCC4)cccc2c1`, the Ki in test [13] came to 1.03 nM; in [14] it was 226 nM. Besides, the Ratio Ki in [15] was determined as 317.

In the case of `CCOC1(c2ncc(-c3ccncc3)s2)CCN(Cc2ccccc2)CC1`, the Ki in test [1] is 1.9 nM; in test [2] it was 3600 nM. Moreover, the Ratio Ki in test [3] is above 1500.

With `C#CCN(C)CCCOc1ccc(Cl)cc1Cl` [CLORGILINE], the results for the Ki in test [16] and in [17] were 2.9 nM and 505 nM, respectively.

Take `Clc1ccc(-c2noc(CCCCN3CCOCC3)n2)c(Cl)c1`: the results for the inhibitory constant (Ki) (in test [18]; in test [19]; at Histamine H3 receptor) were 0.28 nM, 164 nM and 23.2 nM, respectively. In addition, in the test listed under Cavia porcellus, the Ratio Ki amounted to 587.

In turn, `CCCN1CCC(c2cccc(S(C)(=O)=O)c2)CC1` [PRIDOPIDINE] had a Ki in [20] of 81.7 nM.

For `CN(C)CC1CCOC1(c1ccccc1)c1ccccc1` (configuration not stated) [BLARCAMESINE], the IC50 is 860 nM in test [21]; 3300 nM in test [22]; 3300 nM in test [23]; 3300 nM in test [24]; 3300 nM in [25].

With `C=C1CCN2Cc3ccc(OC)cc3[C@H]3CCCC[C@]32C1`, the Ki was 8 nM in [21], 152 nM in [26] and 531 nM in test [27].

Turning to `CNCCC(Oc1ccc(C(F)(F)F)cc1)c1ccccc1` (configuration not stated) [FLUOXETINE], the Ki in [9] was 16100 nM.

With `c1ccc(CN2CCC3(CCc4ccccc4S3)CC2)cc1`, the Ki in test [28] turned out to be 0.5 nM; in test [29] it was 416 nM.

On to `CCN(CC)CCOCCOC(=O)C1(c2ccccc2)CCCC1` [CARBETAPENTANE], for which the Ki in test [21] is 129 nM; in [26], 1950 nM.

Regarding `c1ccc(OCc2cc(OCCNC3CCC3)no2)cc1`, the Ratio Ki in test [30] amounted to 990. Also, the Ki in test [31], in [32] and in test [33] was above 7000 nM in each case.
